Test results as given in patent publication US20250002533A1, “PEPTIDE AND ITS USES” (INSTYTUT MEDYCYNY DOSW[…] […].MIROSLAWA MOSS[…] AKADEMII …, priority 2021, published 2025).

Assays:
[1] = test system: rats; details: cited from earlier work
[2] = test system: mu opioid receptor (MOR); details: depending on the route of administration and the assay measuring analgesia; cited from earlier work
[3] = cited from earlier work
[4] = test system: acute pain model in rats; test: Analgesic effect (% MPE) after subarachnoid (i.t.) administration in an acute pain model in rats; assay type: in vivo, rat
[5] = test system: rats with induced neuropathic pain; test: Chronic constriction injury (CCI) neuropathic pain model, von Frey test, central (subarachnoid) administration; assay type: in vivo, rat
Method: In the next step of the study, the peptide was administered by the central (subarachnoid) route to rats with induced neuropathic pain (the model of neuropathic pain of loose ligation of the sciatic nerve according to Bennett [Bennett and Xie, 1988]) according to the method described by Yaksh & Rudy (Yaksh T. R., Rudy T. A., Physiol Behav. 17:1031-1036 (1976). In the first step, the level of pain experienced by rats with chronic pain was determined in comparison to healthy rats. The results of the test are shown in FIG. 5. The behavioral test consisted of measuring the level of allodynia on the pelvic, “sick” limb, where the time or strength of the irritating stimulus acting on the bottom of the foot were tested.
In the main test of the analgesic effect of the tested peptide, a single dose of the peptide was administered by the central route at predetermined time intervals. To that end, the compound was dissolved in physiological saline solution and administered by a Hamilton syringe to the rats on days 0, 4, 7, 14 of the experiment. Earlier studies let to establish that in our case, the effective dose of peptide for rats is 2.0 nmol/kg.
In the treatment of chronic pain, pharmacotherapy is based on repeated administration of the active substance, which is often associated with the occurrence of the tolerance and undesired side effects. Therefore, in the next step of the study, the analgesic compound was administered to the rats daily for a period of 14 days, FIG. 7.

[6] = daily i.t. administration for 14 days

**Q.** With `C[C@@H](NC(=O)[C@@H](N)Cc1ccc(O)cc1)C(=O)NCC(=O)N[C@@H](Cc1ccccc1)C(=O)NNC(=O)[C@H](Cc1ccccc1)NC(=O)CNC(=O)[C@@H](C)NC(=O)[C@@H](N)Cc1ccc(O)cc1` [biphalin] as the molecule, how does the “effect after intravenous administration relative to morphine” value ([1]; animals, intravenous) read?
**A.** corresponds to doses of morphine

**Q.** What about the “activity relative to morphine after administration into the subarachnoid space” value ([1]; rats, intrathecal) of the same molecule?
**A.** more than one thousand times more active than morphine

**Q.** With `C[C@@H](NC(=O)[C@@H](N)Cc1ccc(O)cc1)C(=O)N[C@@H](Cc1ccccc1)C(=O)NCC(=O)N[C@@H](Cc1ccc(O)cc1)C(=O)N1CCC[C@H]1C(=O)N[C@@H](CO)C(N)=O` [dermorphin, Dermorphin] as the molecule, how does the “potency relative to morphine” value [2] read?
**A.** 750-2200 times

**Q.** What about the “known stability in human or rat serum” value [3] of the same molecule?
**A.** 170 to 190 min

**Q.** For `CN1CC[C@]23c4c5ccc(O)c4O[C@H]2[C@@H](O)C=C[C@H]3[C@H]1C5` [morphine, reference compound], which “equipotent dose relative to that of the peptide according to the invention” value ([4]; i.t.) is on record?
**A.** approximately 100 times

**Q.** What about the “dose producing an effect similar to the peptide according to the invention” value ([4]; i.t., equipotent dose) of the same molecule?
**A.** 32.0 nmol/kg

**Q.** For `C[C@@H](NC(=O)[C@H](CO)NC(=O)[C@@H]1CCCN1C(=O)[C@H](Cc1ccc(O)cc1)NC(=O)CNC(=O)[C@H](Cc1ccccc1)NC(=O)[C@@H](C)NC(=O)[C@@H](N)Cc1ccc(O)cc1)C(=O)N[C@@H](Cc1ccccc1)C(=O)O` [peptide according to the invention, H2N-Tyr-D-Ala-Gly-Phe-Gly-Tyr-Pro-Ser-D-Ala-Phe-OH], which “analgesic effect at the threshold dose” value ([4]; i.t., 0.004 nmol/kg) is on record?
**A.** active at a low but noticeable level

**Q.** What about the “duration of analgesic effect” value ([4]; i.t., 0.04 nmol/kg) of the same molecule?
**A.** 30 min

**Q.** And the “duration of analgesic effect” value ([4]; i.t., 0.08 nmol/kg)?
**A.** 60 min

**Q.** And the “activity in 60 and 120 min” value ([4]; i.t., 0.08 nmol/kg and 0.4 nmol/kg, 60 and 120 min)?
**A.** 60-70 % MPE

**Q.** And the “analgesic potency compared to morphine” value ([4]; i.t., FIGS. 1-3)?
**A.** definitely more potent than morphine

**Q.** What about the “duration of maximum effects” value ([4]; i.t., highest doses 0.08 nmol/kg and 0.4 nmol/kg) of the same molecule?
**A.** up to 30 min

**Q.** What about the “analgesic effect compared to dermorphin at the lower dose” value ([4]; subarachnoid, 0.04 nmol/kg, first 30 minutes) of the same molecule?
**A.** slightly higher in the first 30 minutes than for dermorphin

**Q.** What about the “analgesic effect compared to dermorphin at the higher dose” value ([4]; subarachnoid, 0.4 nmol/kg, first 30 minutes) of the same molecule?
**A.** equipotent for the first 30 minutes

**Q.** And the “analgesic potency compared to dermorphin” value ([4]; subarachnoid, equivalent doses 0.04 and 0.4 nmol/kg)?
**A.** as potent as dermorphin

**Q.** And the “value of MPE maintained for 120 minutes after administration” value ([4]; subarachnoid, higher dose 0.4 nmol/kg, 120 min)?
**A.** 40%

**Q.** What about the development of tolerance [5, 6] of the same molecule?
**A.** did not develop tolerance

**Q.** What about the “general condition / undesired side effects (weight loss, hyperalgesia to touch, vocalization, hair shedding)” value [5, 6] of the same molecule?
**A.** in good general physical condition

**Q.** And the “hyperalgesia after long-term administration” value [5, 6]?
**A.** did not induce hyperalgesia

**Q.** What about the “analgesic effect, daily administration, fourteenth day” value ([5]; daily i.t. administration, day 14, versus control group) of the same molecule?
**A.** did not induce its analgesic effect

**Q.** And the “analgesic effect, daily administration, days 4 and 7” value ([5]; daily i.t. administration, days 4 and 7, versus untreated group)?
**A.** highly analgesic

**Q.** What about the “effective dose of peptide for rats” value ([5]; rats, CCI model, central route) of the same molecule?
**A.** 2.0 nmol/kg

**Q.** What about the “analgesic effect, single dose” value ([5]; single dose i.t. on days 0, 4, 7, 14, result on days 4, 7 and 14 of pain induction, 2.0 nmol/kg) of the same molecule?
**A.** highly analgesic
